Measurements taken from the supplement of paper PMC10307832.

How the values were obtained:
Assay in all cases: relative viability (nuclei count vs DMSO), 5 days (fraction); higher = more cells survive
Bexarotene + Luminespib = compound: C=C(c1ccc(C(=O)O)cc1)c1cc2c(cc1C)C(C)(C)CCC2(C)C [Bexarotene] + CCNC(=O)c1noc(-c2cc(C(C)C)c(O)cc2O)c1-c1ccc(CN2CCOCC2)cc1 [Luminespib] (partner 0.01 µM)
Outline: (§1)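 Relative viability was taken as the ratio of nuclei in treated wells to nuclei in vehicle wells. Lung cancer cell lines in 1536-well plates received compounds by pin tool one day after seeding, either one drug alone or a fixed anchor-drug dose plus five library-drug doses (not always all listed) in √10 steps. Nuclei were counted on 4× images after 5 days of treatment, and values are medians of duplicate plates.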

Bexarotene + Decitabine = compound: C=C(c1ccc(C(=O)O)cc1)c1cc2c(cc1C)C(C)(C)CCC2(C)C [Bexarotene] + Nc1ncn([C@H]2C[C@H](O)[C@@H](CO)O2)c(=O)n1 [Decitabine] (partner 2 µM)
Outline: as §1

Bexarotene + Olaparib = compound: C=C(c1ccc(C(=O)O)cc1)c1cc2c(cc1C)C(C)(C)CCC2(C)C [Bexarotene] + O=C(c1cc(Cc2n[nH]c(=O)c3ccccc23)ccc1F)N1CCN(C(=O)C2CC2)CC1 [Olaparib] (partner 8 µM)
Outline: as §1

Bexarotene + Lapatinib = compound: C=C(c1ccc(C(=O)O)cc1)c1cc2c(cc1C)C(C)(C)CCC2(C)C [Bexarotene] + CS(=O)(=O)CCNCc1ccc(-c2ccc3ncnc(Nc4ccc(OCc5cccc(F)c5)c(Cl)c4)c3c2)o1 [Lapatinib] (partner 2 µM)
Outline: as §1

Cell Line	relative viability (Bexarotene + Luminespib; first compound 0.08 µM)	relative viability (Bexarotene + Luminespib; first compound 0.253 µM)	relative viability (Bexarotene + Luminespib; first compound 0.8 µM)	relative viability (Bexarotene + Luminespib; first compound 2.53 µM)	relative viability (Bexarotene + Luminespib; first compound 8 µM)	relative viability (Bexarotene + Decitabine; first compound 0.08 µM)	relative viability (Bexarotene + Decitabine; first compound 0.253 µM)	relative viability (Bexarotene + Decitabine; first compound 0.8 µM)	relative viability (Bexarotene + Decitabine; first compound 2.53 µM)	relative viability (Bexarotene + Decitabine; first compound 8 µM)	relative viability (Bexarotene + Olaparib; first compound 0.08 µM)	relative viability (Bexarotene + Olaparib; first compound 0.253 µM)	relative viability (Bexarotene + Olaparib; first compound 0.8 µM)	relative viability (Bexarotene + Olaparib; first compound 2.53 µM)	relative viability (Bexarotene + Olaparib; first compound 8 µM)	relative viability (Bexarotene + Lapatinib; first compound 0.08 µM)	relative viability (Bexarotene + Lapatinib; first compound 0.253 µM)	relative viability (Bexarotene + Lapatinib; first compound 0.8 µM)	relative viability (Bexarotene + Lapatinib; first compound 2.53 µM)	relative viability (Bexarotene + Lapatinib; first compound 8 µM)
NCI-H441	0.373	0.384	0.314	0.295	0.377	0.3	0.283	0.236	0.229	0.279	0.608	0.61	0.628	0.599	0.495	–	–	–	–	–
NCI-H1793	0.2	0.152	0.164	0.15	0.335	0.54	0.434	0.563	0.469	0.328	1.06	0.966	0.787	0.903	0.695	0.647	0.68	0.647	0.568	0.519
NCI-H23	0.229	0.201	0.238	0.234	0.204	0.351	0.322	0.346	0.298	0.329	0.344	0.341	0.289	0.294	0.3	1.13	1.11	1.2	1.06	1.12
HARA	0.722	0.769	0.658	0.767	0.709	0.618	0.637	0.535	0.633	0.514	0.752	0.838	0.925	0.731	0.715	0.747	0.839	0.684	0.77	0.706
NCI-H1792	0.519	0.406	0.49	0.361	0.286	0.548	0.527	0.493	0.531	0.425	0.229	0.435	0.393	0.337	0.32	0.883	0.763	0.794	0.574	0.837
NCI-H1703	–	–	–	–	–	–	–	–	–	–	0.532	0.494	0.483	0.386	0.377	1.14	1.11	0.802	0.834	0.762
NCI-H1648	–	–	–	–	–	0.489	0.409	0.451	0.36	0.465	0.927	1.34	0.712	0.766	0.685	–	–	–	–	–
CAL-12T	0.218	0.224	0.419	0.322	0.297	–	–	–	–	–	0.728	0.64	0.658	0.648	0.67	0.632	–	0.638	–	0.543
NCI-H727	0.392	0.685	0.325	0.322	0.372	1.02	0.748	0.826	0.847	0.885	0.778	0.694	0.804	0.691	0.807	1.02	0.887	0.881	0.762	0.811
NCI-H2085	0.451	0.556	0.374	0.457	0.378	0.539	0.545	0.512	0.487	0.536	0.691	0.709	0.693	0.676	0.694	0.739	0.723	0.596	0.703	0.731
NCI-H1395	0.806	0.631	0.687	0.663	0.749	0.801	0.686	0.72	0.713	0.731	0.441	0.543	0.476	0.459	0.504	1.05	0.935	0.926	0.902	0.997
SW 900	0.167	0.17	0.148	0.189	0.163	0.463	0.397	0.498	0.448	0.462	0.936	0.733	1.11	0.866	0.863	–	–	–	–	–
NCI-H460	0.0252	0.0297	0.0376	0.0318	0.0222	0.581	0.505	0.448	0.499	0.381	0.54	0.568	0.409	0.536	0.492	1.01	1.03	0.948	0.981	0.731
A549	–	–	–	–	–	0.256	0.291	0.318	0.242	0.237	0.245	0.388	0.35	0.291	0.3	0.94	1.09	0.972	0.925	0.798
IA-LM	–	–	–	–	–	–	–	–	–	–	0.752	0.707	0.675	0.576	0.63	–	0.773	0.68	0.536	0.694
EKVX	0.918	0.837	0.922	0.787	0.851	0.299	0.338	0.309	0.172	0.332	0.838	0.993	0.947	0.946	0.948	0.202	0.186	0.227	0.204	0.19
ChaGo-K-1	0.54	0.604	0.6	0.686	0.693	0.57	0.512	0.509	0.489	0.497	0.411	0.413	0.408	0.395	0.42	–	–	–	–	–
NCI-H1755	0.391	0.504	0.679	0.52	0.438	0.783	0.743	0.783	0.778	0.75	0.982	0.957	1.03	0.951	0.887	1.07	1.29	1.1	0.994	1.02
NCI-H2228	0.186	0.121	0.145	0.145	0.132	–	–	–	–	–	0.825	0.799	0.631	0.591	0.492	1.55	0.935	0.763	1.17	0.909

Cell Line	relative viability (Bexarotene + Luminespib; first compound 0.08 µM)	relative viability (Bexarotene + Luminespib; first compound 0.253 µM)	relative viability (Bexarotene + Luminespib; first compound 0.8 µM)	relative viability (Bexarotene + Luminespib; first compound 2.53 µM)	relative viability (Bexarotene + Luminespib; first compound 8 µM)	relative viability (Bexarotene + Decitabine; first compound 0.08 µM)	relative viability (Bexarotene + Decitabine; first compound 0.253 µM)	relative viability (Bexarotene + Decitabine; first compound 0.8 µM)	relative viability (Bexarotene + Decitabine; first compound 2.53 µM)	relative viability (Bexarotene + Decitabine; first compound 8 µM)	relative viability (Bexarotene + Olaparib; first compound 0.08 µM)	relative viability (Bexarotene + Olaparib; first compound 0.253 µM)	relative viability (Bexarotene + Olaparib; first compound 0.8 µM)	relative viability (Bexarotene + Olaparib; first compound 2.53 µM)	relative viability (Bexarotene + Olaparib; first compound 8 µM)	relative viability (Bexarotene + Lapatinib; first compound 0.08 µM)	relative viability (Bexarotene + Lapatinib; first compound 0.253 µM)	relative viability (Bexarotene + Lapatinib; first compound 0.8 µM)	relative viability (Bexarotene + Lapatinib; first compound 2.53 µM)	relative viability (Bexarotene + Lapatinib; first compound 8 µM)
NCI-H2087	0.174	0.169	0.175	0.139	0.142	0.303	0.277	0.242	0.227	0.215	0.689	0.72	0.582	0.481	0.58	1.06	1.16	1.2	0.98	0.883
LU99A	0.268	0.251	0.238	0.291	0.244	1.18	1	0.935	0.909	0.889	0.276	0.306	0.277	0.311	0.273	1.12	0.917	0.929	0.99	1.03
NCI-H1355	0.831	0.714	0.668	0.631	0.716	0.379	0.332	0.416	0.388	0.346	0.805	0.76	0.781	0.785	0.778	1.02	1.1	0.898	1.1	0.936
NCI-H520	0.236	0.22	0.229	0.22	0.226	0.499	0.473	0.552	0.52	0.51	0.368	0.347	0.313	0.316	0.332	1.12	0.793	0.577	0.875	0.71
NCI-H661	0.943	0.9	0.929	0.89	0.89	0.606	0.542	0.559	0.509	0.496	0.769	0.756	0.73	0.751	0.707	0.432	0.554	0.477	0.516	0.513
NCI-H650	0.779	0.828	0.877	0.898	0.742	0.284	0.263	0.328	0.301	0.309	0.325	0.432	0.354	0.356	0.382	1.08	1.06	0.915	0.634	0.778
NCI-H647	0.148	0.176	0.211	0.134	0.11	0.439	0.394	0.412	0.419	0.335	0.725	0.629	0.64	0.447	0.464	1.33	1.17	1.19	1.24	0.964
201T	1	1.04	1.01	0.985	0.881	0.828	0.858	0.746	0.781	0.692	0.837	0.823	0.777	0.919	0.709	1.01	0.945	1.03	1.02	0.997
NCI-H838	0.368	0.377	0.269	0.329	0.321	0.521	0.423	0.499	0.515	0.445	0.809	0.784	0.74	0.725	0.745	1.05	1.19	0.974	1.14	1.03
SW 1573	0.252	0.216	0.222	0.615	0.242	0.505	0.43	0.482	0.452	0.363	0.537	0.461	0.499	0.445	0.41	1.09	1	1.1	0.919	0.916
PC-14	0.17	0.178	0.157	0.162	0.279	0.288	0.251	0.251	0.206	0.209	0.268	0.349	0.243	0.213	0.214	0.347	0.401	0.365	0.327	0.337
LK-2	0.206	0.222	0.281	–	0.18	0.387	0.308	0.321	0.35	0.279	0.97	0.632	0.981	0.652	0.841	1.33	1	1.04	0.968	0.961
COR-L23	0.795	0.786	0.565	0.629	0.618	0.47	0.455	0.438	0.452	0.416	0.344	0.365	0.323	0.373	0.301	1.24	0.921	0.976	0.976	0.879
HCC-78	–	–	–	–	–	0.735	0.705	0.673	0.528	0.749	0.756	0.984	0.769	0.883	0.835	0.724	0.7	0.591	0.637	0.668
HCC-366	–	–	–	–	–	0.36	0.376	0.339	0.346	0.289	0.346	0.494	0.381	0.388	0.369	0.984	1.06	1.06	1.04	1.06
LCLC-103H	1.08	0.935	0.885	1.04	0.846	0.811	0.701	0.689	0.795	0.742	0.827	0.896	0.699	0.779	0.825	–	–	–	–	–
NCI-H1563	0.518	0.493	0.48	0.524	0.503	–	–	–	–	–	–	–	–	–	–	1.09	0.945	0.799	0.903	0.891
EBC-1	–	–	–	–	–	–	–	–	–	–	0.771	0.713	0.588	0.701	0.715	0.231	0.232	0.22	0.192	0.209
Calu-6	–	–	–	–	–	–	–	–	–	–	0.638	0.563	0.494	0.606	0.568	0.929	1.03	0.987	0.963	1.14
